Eleven compounds from patent US20170283425A1, “COMPOUNDS FOR THE INHIBITION OF CYCLOPHILINS AND USES THEREOF” (Merck Patent GmbH, priority 2016, published 2017) can be followed below.

The target in assay [1] is T1, CypD (Homo sapiens, UniProt P30405). Briefly: CypD binding assay (competition fluorescence polarisation with fluorescein-labelled cyclosporin). Here is the method: The binding capacity of the compounds were measured using a competition Fluorescence-Polarisation based assay with fluorescine labelled cyclosporin. The protocol used was adapted from Hausch et al, Med Chem lett 2010, p 536.
T1 sequence (P30405 30-207): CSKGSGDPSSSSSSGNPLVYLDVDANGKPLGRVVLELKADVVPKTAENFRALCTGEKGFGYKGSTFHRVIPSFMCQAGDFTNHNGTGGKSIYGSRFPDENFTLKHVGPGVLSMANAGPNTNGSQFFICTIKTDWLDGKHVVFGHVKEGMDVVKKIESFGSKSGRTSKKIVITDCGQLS
(In general: Fluorescence polarisation rises when a labelled molecule tumbles more slowly, as on binding a larger partner.)

Assay [2] concerns the target T1, CypD. The assay is described as follows: SPR binding. The settings on record: SPR surface; read-out: SPR CypD (KDSS). A general note: In SPR one partner is held on a chip, and binding of the other changes the refractive index at the surface.
Excerpt: Binding was confirmed on an SPR surface using a protocol adapted from Mori et al., J. Biomolecular Screening, 2009 p 419.
In assay [3] the target is T1, CypD. The assay is described as follows: CypD enzymatic assay (PPase-chymotrypsin coupled, suc-AAPF-p-NA substrate). The assay is classed as biochemical. The following applies: colorimetric. How it is done:
The peptidyl-proline isomerase activity (PPase) was determined by using a PPase-chymotrypsin coupled assay with suc-AAPF-p-NA as substrated and colorimeric detection adapted from Liu et al., AnalBioChem, 2006 p 100.

A value given as a limit tells only on which side of the number the result lay.

One may read the IC50 as the concentration that gives 50% inhibition. Read a low IC50 as greater potency in that assay.

`O=C(NCC(=O)N1CCCC1)NCc1ccc2c(c1)[C@H]1C[C@@H](N2)[C@H](O)CO1` [Compound 12, 1-((1R,9R,10S)-10-Hydroxy-12-oxa-8-aza-tricyclo[7.3.1.02,7]trideca-2(7),3,5-trien-4-ylmethyl)-3-(2-oxo-2-pyrrolidin-1-yl-ethyl)-urea]: the IC50 at CypD [1] and against CypD [3] was 1000 to 100000 nM each time. Moreover, the Kd on CypD [2] fell in the range of 1000 to 100000 nM.
On CypD [1], `CCN1Cc2cc(CCC(=O)NCC(=O)N3CCCC3c3ccccn3)ccc2NCCC1=O` (centres unmarked) [Compound 28, 3-(5-Ethyl-4-oxo-1,2,3,4,5,6-hexahydro-benzo[b][1,5]diazocin-8-yl)-N-[2-oxo-2-(2-pyridin-2-yl-pyrrolidin-1-yl)-ethyl]-propionamide] yielded a 50% inhibitory concentration (IC50) of 1000 to 100000 nM. Moreover, on CypD [2], the Kd is 1000 to 100000 nM.
As for `CCN1Cc2cc(CCC(=O)N[C@H](C(=O)N3CCCC3)c3ccccc3)ccc2NCCC1=O` [Compound 32, 3-(5-Ethyl-4-oxo-1,2,3,4,5,6-hexahydro-benzo[b][1,5]diazocin-8-yl)-N—((S)-2-oxo-1-phenyl-2-pyrrolidin-1-yl-ethyl)-propionamide], at CypD [1], the IC50 is 1000 to 100000 nM. Further, the Kd on CypD [2] was 1000 to 100000 nM.
On CypD [1], `O=C(NCC(=O)N1CCCC1c1ccccn1)NCc1ccc2c(c1)[C@H]1C[C@@H](N2)[C@H](O)CO1` (stereo partly drawn) [Compound 9, 1-(((2R,3S,6R)-3-hydroxy-2,3,4,6-tetrahydro-1H-2,6-methanobenzo[c][1,5]oxazocin-8-yl)methyl)-3-(2-oxo-2-(2-(pyridin-2-yl)pyrrolidin-1-yl)ethyl)urea] returned an IC50 of 1000 to 100000 nM. Further, on CypD [2], the Kd is less than 1000 nM.
Compound `CCN1Cc2cc(CCC(=O)NCC(=O)N3CCCC3c3ccccc3C(F)(F)F)ccc2NCCC1=O` (centres unmarked) [Compound 19, 3-(5-Ethyl-4-oxo-1,2,3,4,5,6-hexahydro-benzo[b][1,5]diazocin-8-yl)-N-{2-oxo-2-[2-(2-trifluoromethyl-phenyl)-pyrrolidin-1-yl]-ethyl}-propionamide] yielded a 50% inhibitory concentration (IC50) at CypD [1] of 1000 to 100000 nM. For the same compound, the Kd at CypD [2] lay within 1000 to 100000 nM.
Consider `CSc1ccccc1[C@H]1CCCN1C(=O)CCC(=O)NCc1ccc2c(c1)[C@H]1C[C@@H](N2)[C@H](O)CO1` [Compound 2, N-((1R,9R,10S)-10-Hydroxy-12-oxa-8-aza-tricyclo[7.3.1.02,7]trideca-2,4,6-trien-4-ylmethyl)-4-[(R)-2-(2-methylsulfanyl-phenyl)-pyrrolidin-1-yl]-4-oxo-butyramide], for which the IC50 on CypD [1] was less than 1000 nM. Further, the Kd at CypD [2] is less than 1000 nM.
For the compound `CCN1Cc2cc(CNC(=O)NCC(=O)N(C)[C@H](C)c3ccccc3)ccc2NCCC1=O` [Compound 35, (R)-2-(3-((5-ethyl-4-oxo-1,2,3,4,5,6-hexahydrobenzo[b][1,5]diazocin-8-yl)methyl)ureido)-N-methyl-N-(1-phenylethyl)acetamide], the IC50 at CypD [1] fell in the range of 1000 to 100000 nM. Besides, at CypD [2], the Kd lay within 1000 to 100000 nM.
With `CCN1Cc2cc(CCC(=O)NCC(=O)N3CCC[C@H]3CO)ccc2NCCC1=O` [Compound 34, 3-(5-Ethyl-4-oxo-1,2,3,4,5,6-hexahydro-benzo[b][1,5]diazocin-8-yl)-N-[2-((S)-2-hydroxymethyl-pyrrolidin-1-yl)-2-oxo-ethyl]-propionamide], the IC50 on CypD [1] was in the range of 1000 to 100000 nM. Also, the Kd on CypD [2] is 1000 to 100000 nM.
On CypD [1], `CCN1Cc2cc(CNC(=O)NCC(=O)N3CCC[C@@H]3c3ccccc3SC)ccc2NCCC1=O` [Compound 3, 1-(5-Ethyl-4-oxo-1,2,3,4,5,6-hexahydro-benzo[b][1,5]diazocin-8-ylmethyl)-3-{2-[(R)-2-(2-methylsulfanyl-phenyl)-pyrrolidin-1-yl]-2-oxo-ethyl}-urea] showed an IC50 of less than 1000 nM. Also, the Kd on CypD [2] is less than 1000 nM.
Regarding “3-((1R,9R,10S)-10-Hydroxy-12-oxa-8-aza-tricyclo[7.3.1.02,7]trideca-2(7),3,5-trien-4-yl)-N-(2-oxo-2-pyrrolidin-1-yl-ethyl)-propionamide [Compound 26]”, the IC50 on CypD [1] lay within 1000 to 100000 nM. Further, at CypD [2], the Kd was 1000 to 100000 nM.
In the case of `O=C(NCC(=O)N1CCCC1c1ccccc1C(F)(F)F)NCc1ccc2c(c1)[C@@H]1C[C@H](N2)[C@H](O)CO1` (stereo partly drawn) [Compound 17, 1-(((2S,3S,6S)-3-hydroxy-2,3,4,6-tetrahydro-1H-2,6-methanobenzo[c][1,5]oxazocin-8-yl)methyl)-3-(2-oxo-2-(2-(2-(trifluoromethyl)phenyl)pyrrolidin-1-yl)ethyl)urea], the concentration for half-maximal inhibition (IC50) on CypD [1] was 1000 to 100000 nM. In addition, the Kd on CypD [2] fell in the range of 1000 to 100000 nM.
